Here are results for two compounds from US20140377870A1 (priority 2010, published 2014).

The subject of one series is VACVΔE3L. It counts as cell-based, vaccinia virus.
In a further series the test system is VACVΔE3L::GyrB-PKRK296H. It counts as cell-based, vaccinia virus.
The test system of another series is VACVΔJ2R::GyrB-PKR. It counts as cell-based, vaccinia virus.
Another series concerns VACVΔE3L::GyrB-PKR. It counts as cell-based, vaccinia virus.
The test system of the next series is ES cells. As to conditions: cited from earlier work.
Series [1] relates to cells not expressing the HSV-TK gene. As to conditions: cited from earlier work.

As for Coumermycin A1, the “sensitivity of virus to coumermycin” value in the series on VACVΔE3L and with VACVΔE3L::GyrB-PKRK296H was “resistant to all doses” each time. In addition, in the series on VACVΔJ2R::GyrB-PKR, the “sensitivity to coumermycin compared to untreated cells” value is “at least 100,000 fold”. The “coumermycin concentration at which sensitivity of the virus was observed” value in the series with VACVΔE3L::GyrB-PKR is reported as “greater than 5 ng/ml”.
Consider `Nc1nc(O)c2ncn(COC(CO)CO)c2n1` [GCV, ganciclovir], for which, in the series on ES cells, the “totipotency of ES cells” value is “reduce the totipotency”. The nonspecific toxicity entry in series [1] is on record as “nonspecific toxicity”.
